Data on five compounds can be found in ChEMBL document CHEMBL1141148, “Antidiabetic activity of passive nonsteroidal glucocorticoid receptor modulators” (J Med Chem, 2005).

For data set [1], the target named is T1, Mineralocorticoid receptor (Homo sapiens, UniProt P08235).
T1 sequence (P08235 whole entry): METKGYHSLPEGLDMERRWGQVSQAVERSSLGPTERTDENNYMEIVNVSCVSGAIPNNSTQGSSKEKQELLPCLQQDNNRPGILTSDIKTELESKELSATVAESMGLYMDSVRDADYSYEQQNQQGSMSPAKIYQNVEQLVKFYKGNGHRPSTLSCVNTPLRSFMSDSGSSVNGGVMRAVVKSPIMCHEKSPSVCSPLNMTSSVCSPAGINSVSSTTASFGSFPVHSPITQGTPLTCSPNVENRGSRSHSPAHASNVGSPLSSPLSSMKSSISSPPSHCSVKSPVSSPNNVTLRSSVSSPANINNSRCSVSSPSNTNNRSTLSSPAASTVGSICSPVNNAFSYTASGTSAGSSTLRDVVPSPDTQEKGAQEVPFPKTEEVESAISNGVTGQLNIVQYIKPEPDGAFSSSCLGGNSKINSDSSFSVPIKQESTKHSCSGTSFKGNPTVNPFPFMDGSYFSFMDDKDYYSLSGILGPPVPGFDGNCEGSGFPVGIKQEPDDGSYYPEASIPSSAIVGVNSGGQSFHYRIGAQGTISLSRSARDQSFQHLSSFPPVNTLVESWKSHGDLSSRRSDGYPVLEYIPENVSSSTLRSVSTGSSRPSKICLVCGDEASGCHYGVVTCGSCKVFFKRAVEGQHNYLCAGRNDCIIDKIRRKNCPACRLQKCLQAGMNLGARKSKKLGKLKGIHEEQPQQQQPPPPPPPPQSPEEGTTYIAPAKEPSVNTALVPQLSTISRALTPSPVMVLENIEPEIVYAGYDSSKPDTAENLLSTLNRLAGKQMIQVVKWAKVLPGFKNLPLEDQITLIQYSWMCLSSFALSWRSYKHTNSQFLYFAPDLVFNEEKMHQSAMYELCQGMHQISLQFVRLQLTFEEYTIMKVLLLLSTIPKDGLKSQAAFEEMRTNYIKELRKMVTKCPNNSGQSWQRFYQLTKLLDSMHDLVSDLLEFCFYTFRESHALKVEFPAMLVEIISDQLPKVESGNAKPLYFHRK
In words: Inhibition of human mineralocorticoid receptor.

Data set [2] addresses T2, Progesterone receptor (Homo sapiens, UniProt P06401).
T2 sequence (P06401 whole entry): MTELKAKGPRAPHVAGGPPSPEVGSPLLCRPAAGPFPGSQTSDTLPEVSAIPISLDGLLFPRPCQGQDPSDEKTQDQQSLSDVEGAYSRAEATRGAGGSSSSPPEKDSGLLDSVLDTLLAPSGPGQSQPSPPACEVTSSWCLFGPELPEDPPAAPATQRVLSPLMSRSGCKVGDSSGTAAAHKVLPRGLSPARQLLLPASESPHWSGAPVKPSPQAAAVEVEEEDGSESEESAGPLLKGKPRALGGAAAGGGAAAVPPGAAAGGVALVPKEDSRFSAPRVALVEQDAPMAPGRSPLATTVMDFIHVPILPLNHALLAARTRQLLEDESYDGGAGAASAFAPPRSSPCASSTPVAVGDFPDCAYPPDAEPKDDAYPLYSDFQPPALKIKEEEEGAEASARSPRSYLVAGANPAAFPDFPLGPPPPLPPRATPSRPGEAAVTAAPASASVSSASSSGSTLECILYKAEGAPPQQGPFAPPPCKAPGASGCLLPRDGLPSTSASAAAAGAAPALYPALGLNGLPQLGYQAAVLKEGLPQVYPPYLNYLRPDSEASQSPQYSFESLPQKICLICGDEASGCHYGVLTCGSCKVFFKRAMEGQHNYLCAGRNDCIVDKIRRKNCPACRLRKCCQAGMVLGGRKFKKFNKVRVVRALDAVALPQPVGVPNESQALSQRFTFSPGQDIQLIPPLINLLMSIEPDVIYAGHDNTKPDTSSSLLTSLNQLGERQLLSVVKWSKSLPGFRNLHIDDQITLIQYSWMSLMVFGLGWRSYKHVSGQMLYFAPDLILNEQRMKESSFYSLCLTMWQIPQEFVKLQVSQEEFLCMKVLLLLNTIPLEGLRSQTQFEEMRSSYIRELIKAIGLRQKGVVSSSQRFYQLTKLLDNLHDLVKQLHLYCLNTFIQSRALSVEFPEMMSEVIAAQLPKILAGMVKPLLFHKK
Briefly: Inhibition of human progesterone receptor.

In data set [3] the target is T3, Glucocorticoid receptor (Homo sapiens, UniProt P04150).
T3 sequence (P04150 whole entry): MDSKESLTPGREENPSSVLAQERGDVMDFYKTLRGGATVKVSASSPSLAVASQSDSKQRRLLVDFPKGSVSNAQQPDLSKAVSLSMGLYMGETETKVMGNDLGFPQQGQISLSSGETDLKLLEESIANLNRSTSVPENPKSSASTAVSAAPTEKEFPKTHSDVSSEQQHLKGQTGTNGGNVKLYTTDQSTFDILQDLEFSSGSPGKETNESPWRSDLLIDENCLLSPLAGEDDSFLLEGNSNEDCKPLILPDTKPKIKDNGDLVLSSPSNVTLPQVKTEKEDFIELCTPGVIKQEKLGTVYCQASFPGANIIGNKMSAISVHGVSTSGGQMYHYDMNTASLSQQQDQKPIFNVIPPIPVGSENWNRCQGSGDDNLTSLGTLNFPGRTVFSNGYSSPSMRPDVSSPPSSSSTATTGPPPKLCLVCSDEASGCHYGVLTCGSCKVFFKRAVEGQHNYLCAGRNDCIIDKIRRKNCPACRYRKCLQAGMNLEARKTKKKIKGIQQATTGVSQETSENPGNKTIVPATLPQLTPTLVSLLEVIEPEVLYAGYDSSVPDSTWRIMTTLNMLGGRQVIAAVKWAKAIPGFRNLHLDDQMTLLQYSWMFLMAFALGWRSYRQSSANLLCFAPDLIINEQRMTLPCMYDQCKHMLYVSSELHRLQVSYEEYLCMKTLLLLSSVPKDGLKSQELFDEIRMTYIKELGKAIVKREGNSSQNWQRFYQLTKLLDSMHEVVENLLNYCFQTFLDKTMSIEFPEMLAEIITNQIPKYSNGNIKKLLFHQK
Briefly: Antagonistic activity against 5 nM Dexamethasone induced glucocorticoid receptor mediated alkaline phosphatase activity. The format is functional.

For data set [4], the species on record is Mus musculus. In words: Initial weight of the ob/ob mice before oral treatment at 30 mpk b.i.d. for 14 days. Format: functional.
Data set [5] can be described thus: Half life period of the compound in human hepatocytes was determined. The format is ADME, cell-based, Liver, Hepatocyte.
Data set [6] in a line: Half life period of the compound in human liver microsomes was determined. The format is ADME, Microsome. (Microsomes from liver hold many membrane-bound enzymes, among them those of drug oxidation.)
Data set [7] is described as follows: Compound level in liver in SD rats after 1 hr of 5 mg/kg i.v. dose. The format is ADME, organism-based. The arrangement: dose 5 mg/kg, route intravenous. The following applies: Sprague-Dawley, rat, iv, read-out: Level.
A short description of data set [8]: Compound level in liver in SD rats after 7 hr of 5 mg/kg i.v. dose. The format is ADME, organism-based. Also on record: dose 5 mg/kg, route intravenous. The following applies: Sprague-Dawley, rat, iv, read-out: Level.
Data set [9] is described as follows: Compound level in plasma in SD rats after 1 hr of 5 mg/kg i.v. dose. The format is ADME, organism-based. The arrangement: dose 5 mg/kg, route intravenous. The following applies: Sprague-Dawley, rat, iv, read-out: Level.
The nature of data set [10]: Compound level in plasma in SD rats after 7 hr of 5 mg/kg i.v. dose. The format is ADME, organism-based. Also on record: dose 5 mg/kg, route intravenous. To be noted: Sprague-Dawley, rat, iv, read-out: Level.
Data set [11] is described as follows: Compound level in liver in ob/ob mice after 13 days of 100 mpk oral dose of compound. The format is ADME. The following applies: mouse, 100 mg/kg, read-out: Level.

A word on the IC50: it is the concentration that inhibits the measured activity by half. A low value points to inhibition by little substance. Take `Cc1c(NS(C)(=O)=O)cccc1N(Cc1ccc(Oc2ccc(Cl)c(OCC(=O)O)c2)cc1)Cc1ccc(F)cc1F`: the IC50 is 1000 nM in [1], 150 nM in [2] and 500 nM in data set [3].
For the compound `Cc1c(NS(C)(=O)=O)cccc1N(Cc1ccccc1)Cc1ccc(Oc2cccc(OCCCC(=O)NCCCC(=O)O)c2)cc1`, the IC50 in data set [1] is 120 nM; in data set [2], 550 nM.
Consider `CC#C[C@]1(O)CC[C@H]2[C@@H]3CCC4=CC(=O)CC[C@]4(Cc4ccc(C)cc4)C3=CC[C@@]21C`, for which the values for the concentration for half-maximal inhibition (IC50) in data set [1], in data set [2] and in data set [3] were 6300 nM, 2400 nM and 43 nM, respectively.
One may read the half-life as how long it takes for the measured level to halve. A lower half-life goes with fast loss. For the compound `Cc1c(NS(C)(=O)=O)cccc1N(Cc1ccc(Oc2ccc(F)c(OCC(=O)O)c2)cc1)Cc1ccc(F)cc1F`, the values for the IC50 in [2] and in data set [3] were 180 nM and 440 nM, respectively. In addition, the Weight in data set [4] came to 41.5 g. Moreover, the half-life in data set [5] is 9.1 h; in data set [6] it was 2.3 h. The concentration at 1 h in [7] turned out to be 74000 ng/g; in data set [9], 1600 ng/mL. Besides, the results for the concentration at 7 h in [8] and in data set [10] were 40000 ng/g and 650 ng/mL, respectively. In addition, the concentration at 312 h in [11] worked out at 157000 ng/g.
As to `Cc1c(NS(C)(=O)=O)cccc1N(Cc1ccccc1)Cc1ccc(Oc2ccc(OCC(=O)O)cc2)cc1`, the values for the half-maximal inhibitory concentration (IC50) in [1] and in [2] were 690 nM and 1700 nM, respectively. The values for the half-life in data set [5] and in data set [6] were 31.1 h and 8.9 h, respectively. Besides, the values for the concentration at 1 h in data set [7] and in data set [9] were 20000 ng/g and 30 ng/mL, respectively. Further, the concentration at 7 h in data set [8] was found to be 3800 ng/g; in data set [10], 10 ng/mL. Moreover, in data set [11], the concentration at 312 h was found to be 207000 ng/g.
